Data from patent US10371707B1, “System and methods for bilirubin analysis” (Neolight LLC, priority 2017, dated 2019).
Structures can show the parent of a compound that is named as a salt.

Assays:
[1] = Cyclic voltammetry, direct electro-oxidation on screen-printed carbon electrodes; format: physicochemical; conditions: for anodic peak Epa: first/characteristic anodic peak, carbon electrodes, Ag/AgCl reference, scan rate 0.1 V/s, 0.05M Tris-HCl pH 8.5
Protocol: (§1) All electrochemical experiments were performed on screen-printed carbon electrodes with an Ag/AgCl reference electrode in a 3-electrode mode of operation. Cyclic Voltammetry parameters were controlled via a computational program; scan rate: 0.1 V/s, start potential: −0.5V, switch potential: 0.9V, end potential: −0.5V.
(§2) Deionized water (resistivity 18.2MΩ cm) was used in the preparation of solutions. Bilirubin was dissolved in 0.05M sodium hydroxide to prepare 1 mM stock and gently vortexed till homogenously mixed. This stock solution was then diluted using 0.05 M Tris-HCl (pH 8.5) to the desired working concentration. […] Bromophenol blue was prepared in 0.05M Tris-HCl (pH 8.5). Conjugated bilirubin was dissolved in 0.05M Tris-HCl (pH 8.5) and mixed till homogenous. All tubes containing bilirubin were protected from light.
Regarding the detection of unbound unconjugated bilirubin, it was diluted to a physiologically relevant concentration (100 μM) and analyzed by cyclic voltammetry.

[2] = biological target: T1, Human serum albumin (Homo sapiens, UniProt P02768); experiment: Binding to albumin and displacement of bilirubin by bromophenol blue, assessed by cyclic voltammetry; conditions: for binding affinity to albumin (in words): inferred from voltammetric results; for effect of binding to albumin on electrochemical oxidation of the ligand: mixed with albumin, cyclic voltammetry; for peak current of liberated unconjugated bilirubin (peak at 0.15V): unconjugated bilirubin + albumin + bromophenol blue
T1 construct: purchased Sigma Aldrich, UK
T1 sequence (P02768 25-609): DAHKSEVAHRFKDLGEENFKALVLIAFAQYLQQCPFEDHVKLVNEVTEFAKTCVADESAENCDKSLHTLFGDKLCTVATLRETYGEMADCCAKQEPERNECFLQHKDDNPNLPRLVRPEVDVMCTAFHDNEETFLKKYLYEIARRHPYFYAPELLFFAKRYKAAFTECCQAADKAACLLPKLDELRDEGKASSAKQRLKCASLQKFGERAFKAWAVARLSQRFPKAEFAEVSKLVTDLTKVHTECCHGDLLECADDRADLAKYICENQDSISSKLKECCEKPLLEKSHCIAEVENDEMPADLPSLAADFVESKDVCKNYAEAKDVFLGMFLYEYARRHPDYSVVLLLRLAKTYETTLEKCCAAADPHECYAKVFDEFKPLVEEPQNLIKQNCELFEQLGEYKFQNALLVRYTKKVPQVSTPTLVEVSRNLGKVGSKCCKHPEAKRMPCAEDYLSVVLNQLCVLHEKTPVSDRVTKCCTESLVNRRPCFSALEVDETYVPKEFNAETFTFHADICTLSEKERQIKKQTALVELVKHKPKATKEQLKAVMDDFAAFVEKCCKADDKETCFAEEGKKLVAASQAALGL
Protocol: as §1, §2
Surfactants, caffeine, sodium benzoate and fatty acids are common solubilizing agents.
As with unconjugated bilirubin, bromophenol blue was used a competitive binding ligand for the displacement of conjugated bilirubin.

[3] = biological target: T2, albumin (Homo sapiens, UniProt P02768); conditions: within human plasma; cited from earlier work
T2 construct: host or cells: human plasma
T2 sequence (P02768 25-609): as above

third anodic peak ([1]; cyclic voltammetry, same set-up) [V]	secondary anodic peak ([1]; cyclic voltammetry, same set-up, for unconjugated bilirubin distinct at 50 μM and higher) [V]	SMILES	anodic peak Epa [1] [V]	displacement of conjugated bilirubin from albumin ([2]; conjugated bilirubin, albumin, bromophenol blue at 1:1:1 ratio)	displacement of unconjugated bilirubin from albumin ([2]; equal concentration ratios of unconjugated bilirubin, albumin and bromophenol blue)	binding affinity to albumin (in words) [2]	effect of binding to albumin on electrochemical oxidation of the ligand [2]	peak current of liberated unconjugated bilirubin (peak at 0.15V) ([2]; bromophenol blue concentration increased threefold) [μA]	peak current of liberated unconjugated bilirubin (peak at 0.15V) ([2]; bromophenol blue concentration increased two-fold) [μA]	unconjugated bilirubin bound to albumin [3]
		O=S1(=O)OC(c2cc(Br)c(O)c(Br)c2)(c2cc(Br)c(O)c(Br)c2)c2ccccc21 [bromophenol blue, 4,4′-(1,1-dioxido-3H-2,1-benzoxathiole-3,3-diyl)bis(2,6-dibromophenol)]	0.64	sufficiently displaced the conjugated bilirubin	no displacement of unconjugated bilirubin was observed	higher binding affinity	diminish the bromophenol blue peak at 0.64V	0.347	0.645	
0.44	0.3	C=CC1=C(C)/C(=C/c2[nH]c(Cc3[nH]c(/C=C4\NC(=O)C(C)=C4C=C)c(C)c3CCC(=O)NCCS(=O)(=O)O)c(CCC(=O)NCCS(=O)(=O)O)c2C)NC1=O [conjugated bilirubin, Bilirubin conjugated ditaurate disodium salt]	0.15			weaker than that of unbound bilirubin	hinders oxidation of bilirubin			
		C=CC1=C(C)/C(=C/c2[nH]c(Cc3[nH]c(/C=C4\NC(=O)C(C)=C4C=C)c(C)c3CCC(=O)O)c(CCC(=O)O)c2C)NC1=O [unconjugated bilirubin, Bilirubin (mixed isomers)]								roughly 99.9%
